The assay concerns the target recombinant human SAE enzyme (Homo sapiens (Human), UniProt Q9UBT2). Put plainly: SAE HTRF enzyme assay. The following applies: for inhibition at 0.111 µM / Percent Inhibition: Concentration 0.111 μM; for inhibition at 0.111 µM: read-out: Percent Inhibition; for IC50: class symbols A/B/C. Format: biochemical. In short, it runs like this: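 Human SAE (0.11 nM) with 0.5 μM ATP, 0.125 μM Sumo-Flag and 0.01 μM Ubc9-GST in HEPES pH 7.5, 5 mM MgCl2, 250 μM GSH; 105 min at 24 °C. Stopped with EDTA; HTRF read after 2 h with Eu-anti-Flag and APC-anti-GST. Percent inhibition or IC50 reported.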
Background: Time-resolved FRET reads energy transfer from a long-lived donor to a nearby acceptor.

recombinant human SAE enzyme, sequence (Q9UBT2 whole entry): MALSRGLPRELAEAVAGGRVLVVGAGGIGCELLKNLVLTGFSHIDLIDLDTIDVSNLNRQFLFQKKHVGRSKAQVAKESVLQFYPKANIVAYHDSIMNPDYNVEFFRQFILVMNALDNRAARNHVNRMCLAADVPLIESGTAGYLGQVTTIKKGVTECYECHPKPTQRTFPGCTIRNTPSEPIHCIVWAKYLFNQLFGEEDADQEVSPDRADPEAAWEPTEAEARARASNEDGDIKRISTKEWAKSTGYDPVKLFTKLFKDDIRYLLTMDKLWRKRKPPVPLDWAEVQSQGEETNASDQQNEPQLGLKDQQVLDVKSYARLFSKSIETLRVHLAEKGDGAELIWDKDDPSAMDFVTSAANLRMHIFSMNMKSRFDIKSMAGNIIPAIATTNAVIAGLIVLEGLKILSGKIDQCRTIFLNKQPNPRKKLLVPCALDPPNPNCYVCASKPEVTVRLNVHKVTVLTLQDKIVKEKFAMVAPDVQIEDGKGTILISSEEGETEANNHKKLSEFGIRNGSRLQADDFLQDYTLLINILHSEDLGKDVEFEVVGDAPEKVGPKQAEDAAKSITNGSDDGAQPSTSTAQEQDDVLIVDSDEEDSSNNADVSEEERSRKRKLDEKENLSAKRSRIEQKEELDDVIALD
recombinant human SAE enzyme, sequence (Q9UBE0 whole entry partner): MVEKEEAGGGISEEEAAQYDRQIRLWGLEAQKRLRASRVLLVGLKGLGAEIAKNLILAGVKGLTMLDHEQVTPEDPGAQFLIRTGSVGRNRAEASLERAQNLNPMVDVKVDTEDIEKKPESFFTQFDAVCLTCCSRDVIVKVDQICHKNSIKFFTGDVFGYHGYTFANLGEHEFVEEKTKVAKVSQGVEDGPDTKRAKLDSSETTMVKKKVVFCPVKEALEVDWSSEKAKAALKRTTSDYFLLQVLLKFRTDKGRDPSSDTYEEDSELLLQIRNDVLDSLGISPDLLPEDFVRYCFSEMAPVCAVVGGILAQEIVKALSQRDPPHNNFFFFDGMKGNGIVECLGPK

In general, inhibition refers to how much of the control response was suppressed. One may read the IC50 as the concentration at which inhibition is half-maximal. Turning to `COCc1csc(C(=O)c2cncnc2N[C@@H]2C[C@H](COS(N)(=O)=O)[C@@H](O)C2)c1` [I-217, {(1R,2S,4R)-2-Hydroxy-4-[(5-{[4-(methoxymethyl)-2-thienyl]carbonyl}pyrimidin-4-yl)amino]cyclopentyl}methyl sulfamate], the inhibition at 0.111 µM came to 36% and the IC50 lay within 100 to 1000 nM.

For `COCc1cc(C(=O)c2cncnc2N[C@@H]2C[C@H](COS(N)(=O)=O)[C@@H](O)C2)sc1Cl` [I-218, {(1R,2S,4R)-4-[(5-{[5-Chloro-4-(methoxymethyl)-2-thienyl]carbonyl}pyrimidin-4-yl)amino]-2-hydroxycyclopentyl}methyl sulfamate], the inhibition at 0.111 µM turned out to be 33% and the IC50 was 100 to 1000 nM.

With `NS(=O)(=O)OC[C@H]1C[C@@H](Nc2ncncc2C(=O)c2cc(CN3CC=CC3)cs2)C[C@@H]1O` [I-219, {(1R,2S,4R)-4-[(5-{[4-(2,5-dihydro-1H-pyrrol-1-ylmethyl)-2-thienyl]carbonyl}pyrimidin-4-yl)amino]-2-hydroxycyclopentyl}methyl sulfamate], the inhibition at 0.111 µM came to 32% and the IC50 was in the range of 100 to 1000 nM.

On to `CN(C)Cc1cn(Cc2csc(C(=O)c3cncnc3N[C@@H]3C[C@H](COS(N)(=O)=O)[C@@H](O)C3)c2)c2ccccc12` [I-221, {(1R,2S,4R)-4-[(5-{[4-({3-[(dimethylamino)methyl]-1H-indol-1-yl}methyl)-2-thienyl]carbonyl}pyrimidin-4-yl)amino]-2-hydroxycyclopentyl}methyl sulfamate], for which the inhibition at 0.111 µM was determined as 30% and the IC50 was in the range of 100 to 1000 nM.

As to `NS(=O)(=O)OC[C@H]1C[C@@H](Nc2ncncc2C(=O)c2cc(CNCc3ccccc3)cs2)C[C@@H]1O` [I-222, [(1R,2S,4R)-4-{[5-({4-(Benzylamino)methyl]-2-thienyl)carbonyl)pyrimidin-4-yl]amino}-2-hydroxycyclopentyl]methyl sulfamate], the “Percent Inhibition” value is recorded as 31 and the IC50 was in the range of 100 to 1000 nM.

`COCc1coc(C(=O)c2cncnc2N[C@@H]2C[C@H](COS(N)(=O)=O)[C@@H](O)C2)c1` [I-223, [(1R,2S,4R)-2-Hydroxy-4-({5-[4-(methoxymethyl)-2-furoyl]pyrimidin-4-yl}amino)cyclopentyl]methyl sulfamate]: the inhibition at 0.111 µM stood at 28% and the IC50 lay within 100 to 1000 nM.

Take `NS(=O)(=O)OC[C@H]1C[C@@H](Nc2ncncc2C(=O)c2cc(CN3CCCC(F)(F)C3)cs2)C[C@@H]1O` [I-224, [(1R,2S,4R)-4-{[5-({4-[(3,3-difluoropiperidin-1-yl)methyl]-2-thienyl}carbonyl)pyrimidin-4-yl]amino}-2-hydroxycyclopentyl]methyl sulfamate]: the inhibition at 0.111 µM was 31% and the IC50 is 100 to 1000 nM.

`NS(=O)(=O)OC[C@H]1C[C@@H](Nc2ncncc2C(=O)c2cc(CN3CCC(F)(F)C3)cs2)C[C@@H]1O` [I-228, [(1R,2S,4R)-4-{[5-({4-[(3,3-Difluoropyrrolidin-1-yl)methyl]-2-thienyl}carbonyl)pyrimidin-4-yl]amino}-2-hydroxycyclopentyl]methyl sulfamate]: the inhibition at 0.111 µM amounted to 29% and the IC50 was in the range of 100 to 1000 nM.

Consider `CC(=O)c1csc(C(=O)c2cncnc2N[C@@H]2C[C@H](COS(N)(=O)=O)[C@@H](O)C2)c1` [I-229, [(1R,2S,4R)-4-{(5-[(4-Acetyl-2-thienyl)carbonyl]pyrimidin-4-yl}amino)-2-hydroxycyclopentyl]methyl sulfamate], for which the inhibition at 0.111 µM was 25% and the IC50 was in the range of 100 to 1000 nM.

As for `NS(=O)(=O)OC[C@H]1C[C@@H](Nc2ncncc2C(=O)c2cc(CO)cs2)C[C@@H]1O` [I-230, {(1R,2S,4R)-2-hydroxy-4-[(5-{[4-(hydroxymethyl)-2-thienyl]carbonyl}pyrimidin-4-yl)amino]cyclopentyl}methyl sulfamate], the inhibition at 0.111 µM worked out at 26% and the IC50 lay in the range of 100 to 1000 nM.

For the compound `NS(=O)(=O)OC[C@H]1C[C@@H](Nc2ncncc2C(=O)c2cc(Cn3ccnc3)cs2)C[C@@H]1O` [I-231, {(1R,2S,4R)-2-hydroxy-4-[(5-{[4-(1H-imidazol-1-ylmethyl)-2-thienyl]carbonyl}pyrimidin-4-yl)amino]cyclopentyl}methyl sulfamate], the inhibition at 0.111 µM amounted to 28% and the IC50 was 100 to 1000 nM.

On to `Cc1cc(Cc2cccc(Cl)c2)sc1C(=O)c1cncnc1N[C@@H]1C[C@H](COS(N)(=O)=O)[C@@H](O)C1` [I-233, {(1R,2S,4R)-4-[(5-{[5-(3-Chlorobenzyl)-3-methyl-2-thienyl]carbonyl}pyrimidin-4-yl)amino]-2-hydroxycyclopentyl}methyl sulfamate], for which the inhibition at 0.111 µM amounted to 22% and the IC50 was 100 to 1000 nM.

As to `CC(=O)c1coc(C(=O)c2cncnc2N[C@@H]2C[C@H](COS(N)(=O)=O)[C@@H](O)C2)c1` [I-234, [(1R,2S,4R)-4-{[5-(4-Acetyl-2-furoyl)pyrimidin-4-yl]amino}-2-hydroxycyclopentyl]methyl sulfamate], the inhibition at 0.111 µM worked out at 20% and the IC50 is 100 to 1000 nM.

As to `CC(C)(O)c1ccc(C(=O)c2cncnc2N[C@@H]2C[C@H](COS(N)(=O)=O)[C@@H](O)C2)s1` [I-235, {(1R,2S,4R)-2-hydroxy-4-[(5-{[5-(2-hydroxypropan-2-yl)-2-thienyl]carbonyl}pyrimidin-4-yl)amino]cyclopentyl}methyl sulfamate], the inhibition at 0.111 µM was 22% and the IC50 was 100 to 1000 nM.

Consider `NS(=O)(=O)OC[C@H]1C[C@@H](Nc2nc(Cl)ncc2C(=O)c2ccc(-c3ccccc3)o2)[C@H](O)[C@@H]1O` [I-236, [(1R,2R,3S,4R)-4-{[2-chloro-5-(5-phenyl-2-furoyl)pyrimidin-4-yl]amino}-2,3-dihydroxycyclopentyl]methyl sulfamate], for which the inhibition at 0.111 µM is 19% and the half-inhibitory concentration (IC50) was in the range of 100 to 1000 nM.

On to `Cc1ccc(Cc2csc(C(=O)c3cncnc3N[C@@H]3C[C@H](COS(N)(=O)=O)[C@@H](O)C3)c2)o1` [I-237, [(1R,2S,4R)-2-Hydroxy-4-{[5-({4-[(5-methyl-2-furyl)methyl]-2-thienyl}carbonyl)pyrimidin-4-yl]amino}cyclopentyl]methyl sulfamate], for which the inhibition at 0.111 µM amounted to 25% and the IC50 is 100 to 1000 nM.

Take `NS(=O)(=O)OC[C@H]1C[C@@H](Nc2ncncc2C(=O)c2ccc(S(=O)(=O)c3ccccc3)o2)C[C@@H]1O` [I-239, [(1R,2S,4R)-2-Hydroxy-4-(5-[5-(phenylsulfonyl)-2-furoyl]pyrimidin-4-yl}amino)cyclopentyl]methyl sulfamate]: the “Percent Inhibition” value was determined as 14 and the IC50 was 100 to 1000 nM.

Regarding `CC(C)(O)c1csc(C(=O)c2cncnc2N[C@@H]2C[C@H](COS(N)(=O)=O)[C@@H](O)C2)c1` [I-240, {(1R,2S,4R)-2-Hydroxy-4-[(5-{[4-(2-hydroxypropan-2-yl)-2-thienyl]carbonyl}pyrimidin-4-yl)amino]cyclopentyl}methyl sulfamate], the inhibition at 0.111 µM was 19% and the IC50 is 100 to 1000 nM.

Consider `NS(=O)(=O)OC[C@H]1C[C@@H](Nc2ncncc2C(=O)c2cc(CN3CCN(c4ccccc4)CC3)cs2)C[C@@H]1O` [I-241, [(1R,2S,4R)-2-hydroxy-4-{[5-({4-[(4-phenylpiperazin-1-yl)methyl]-2-thienyl}carbonyl)pyrimidin-4-yl]amino}cyclopentyl]methyl sulfamate], for which the inhibition at 0.111 µM was determined as 18% and the IC50 was 100 to 1000 nM.

On to `CC(=O)c1cc(C(=O)c2cncnc2N[C@@H]2C[C@H](COS(N)(=O)=O)[C@@H](O)C2)sc1Cl` [I-242, [(1R,2S,4R)-4-{(5-[(4-Acetyl-5-chloro-2-thienyl)carbonyl]pyrimidin-4-yl}amino)-2-hydroxycyclopentyl]methyl sulfamate], for which the inhibition at 0.111 µM was found to be 25% and the 50% inhibitory concentration (IC50) is 100 to 1000 nM.

Take `NS(=O)(=O)OC[C@H]1C[C@@H](Nc2ncncc2C(=O)c2cc(Cn3cnc(Br)c3)cs2)C[C@@H]1O` [I-243, [(1R,2S,4R)-4-{[5-({4-[(4-bromo-1H-imidazol-1-yl)methyl]-2-thienyl}carbonyl)pyrimidin-4-yl]amino}-2-hydroxycyclopentyl]methyl sulfamate]: the inhibition at 0.111 µM came to 19% and the IC50 was in the range of 100 to 1000 nM.

For `Cc1sc(C(=O)c2cncnc2N[C@@H]2C[C@H](COS(N)(=O)=O)[C@@H](O)C2)cc1[C@H]1OCCc2ccccc21` [I-256a, [(1R,2S,4R)-4-{[5-({4-[(1S)-3,4-dihydro-1H-isochromen-1-yl]-5-methyl-2-thienyl}carbonyl)pyrimidin-4-yl]amino}-2-hydroxycyclopentyl]methyl sulfamate], the inhibition at 0.111 µM is 94% and the IC50 was below 10 nM.

As to `Cc1sc(C(=O)c2cncnc2N[C@@H]2C[C@H](COS(N)(=O)=O)[C@@H](O)C2)cc1[C@@H]1OCCc2ccccc21` [I-256b, [(1R,2S,4R)-4-{[5-({4-[(1R)-3,4-Dihydro-1H-isochromen-1-yl]-5-methyl-2-thienyl}carbonyl)pyrimidin-4-yl]amino}-2-hydroxycyclopentyl]methyl sulfamate], the inhibition at 0.111 µM came to 99% and the IC50 was below 10 nM.

Take `Cc1sc(C(=O)c2cncnc2N[C@@H]2C[C@H](COS(N)(=O)=O)[C@@H](O)C2)cc1[C@H]1OCCc2ccc(Cl)cc21` [I-257a, [(1R,2S,4R)-4-{[5-({4-[(1S)-7-chloro-3,4-dihydro-1H-isochromen-1-yl]-5-methyl-2-thienyl}carbonyl)pyrimidin-4-yl]amino}-2-hydroxycyclopentyl]methyl sulfamate]: the inhibition at 0.111 µM was 74% and the IC50 lay in the range of 10 to 100 nM.

Regarding `Cc1sc(C(=O)c2cncnc2N[C@@H]2C[C@H](COS(N)(=O)=O)[C@@H](O)C2)cc1[C@@H]1OCCc2ccc(Cl)cc21` [I-257b, [(1R,2S,4R)-4-{[5-({4-[(1R)-7-Chloro-3,4-dihydro-1H-isochromen-1-yl]-5-methyl-2-thienyl}carbonyl)pyrimidin-4-yl]amino}-2-hydroxycyclopentyl]methyl sulfamate], the inhibition at 0.111 µM stood at 99% and the IC50 was below 10 nM.

(Values after patent US10780090B2, “Heteroaryl compounds useful as inhibitors of SUMO activating enzyme” (Millennium Pharmaceuticals, Inc., priority 2014, dated 2020).)
